Assay type in all cases: biochemical
In one assay the target is T1, SIK1 (Homo sapiens, UniProt P57059).
T1 construct: purchased Carna Biosciences 02-131
Nature of the assay: ADP-Glo kinase assay, SIK1. On the procedure:
(§1) The ADP-Glo™ kinase assay is a luminescent technology assay which measures the ADP formed from a kinase reaction. […] In a second step the kinase reactions are terminated and all the remaining ATP is depleted. In a final step the ADP is converted into ATP and this newly synthesized ATP is measured by using a luciferase/luciferin reaction. The generated light is measured using an Envision plate reader, wherein the luminescent signal obtained positively correlates with the kinase activity.
(§2) 1% DMSO and 10 μM staurosporine final concentrations are used as negative and positive controls.
(§3) 2 μL enzyme-substrate mixture is added to the assay plates.
(§4) The reaction is started by adding 2 μL diluted ATP on the assay plates. Plates are centrifuged for a few seconds at 1000 rpm and gently shaken for […] followed by an incubation at RT for 120 min.
(§5) The reactions are stopped and the unconsumed ATP is depleted by adding 5 μL ADP-Glo Reagent (Promega, Cat #V9120) to the reaction. The plates are centrifuged for a few seconds at 1000 rpm and incubated at RT for 40 min (ATP depletion).
(§6) The ADP is converted to ATP and luciferase and luciferin is introduced to detect ATP by adding 10 μL Kinase Detection Reagent (Promega, Cat #V913B+V914r) to the reaction. The plates are centrifuged for a few seconds at 1000 rpm and incubated at RT for 30 min (ADP detection).
(§7) Luminescence is measured on an Envision plate reader (PerkinElmer Inc.).
Background: ADP-Glo first removes unused ATP, then detects ADP through luciferase.

Another assay addresses T2, SIK3 (Homo sapiens, UniProt Q9Y2K2).
T2 construct: purchased SignalChem S12-11G-100
Nature of the assay: ADP-Glo kinase assay, SIK3. On the procedure: as §1, §2, §3, §4, §5, §6, §7

The next assay concerns the target T3, SIK2 (Homo sapiens, UniProt Q9H0K1).
T3 construct: purchased ThermoFisher Scientific PV4792
Nature of the assay: ADP-Glo kinase assay, SIK2. On the procedure:
as §1, §2, §3, §4, §5, §6, §7

Bounds are passed on as bounds.

T1 sequence (P57059 whole entry): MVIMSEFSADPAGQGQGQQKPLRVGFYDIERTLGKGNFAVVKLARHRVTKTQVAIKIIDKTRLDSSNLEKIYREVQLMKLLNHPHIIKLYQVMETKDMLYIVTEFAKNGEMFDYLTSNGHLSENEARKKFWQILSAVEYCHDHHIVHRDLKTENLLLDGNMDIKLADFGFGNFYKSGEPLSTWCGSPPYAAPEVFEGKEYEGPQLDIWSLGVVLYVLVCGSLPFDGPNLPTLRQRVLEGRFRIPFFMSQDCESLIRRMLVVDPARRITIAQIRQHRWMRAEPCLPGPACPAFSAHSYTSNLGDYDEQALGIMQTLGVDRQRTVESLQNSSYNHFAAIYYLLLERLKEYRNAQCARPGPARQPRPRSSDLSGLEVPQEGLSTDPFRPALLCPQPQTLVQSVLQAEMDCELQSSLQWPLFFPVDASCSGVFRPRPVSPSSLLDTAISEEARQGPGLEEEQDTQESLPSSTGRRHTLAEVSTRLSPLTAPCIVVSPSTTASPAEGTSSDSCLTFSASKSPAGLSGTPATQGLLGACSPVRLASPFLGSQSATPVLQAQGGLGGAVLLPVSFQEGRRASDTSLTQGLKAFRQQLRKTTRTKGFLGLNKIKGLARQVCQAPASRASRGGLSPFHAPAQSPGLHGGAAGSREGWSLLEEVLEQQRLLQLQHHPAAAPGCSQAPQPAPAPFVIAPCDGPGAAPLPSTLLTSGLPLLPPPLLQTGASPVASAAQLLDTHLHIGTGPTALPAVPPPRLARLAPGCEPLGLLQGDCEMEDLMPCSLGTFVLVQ
T3 sequence (Q9H0K1 whole entry): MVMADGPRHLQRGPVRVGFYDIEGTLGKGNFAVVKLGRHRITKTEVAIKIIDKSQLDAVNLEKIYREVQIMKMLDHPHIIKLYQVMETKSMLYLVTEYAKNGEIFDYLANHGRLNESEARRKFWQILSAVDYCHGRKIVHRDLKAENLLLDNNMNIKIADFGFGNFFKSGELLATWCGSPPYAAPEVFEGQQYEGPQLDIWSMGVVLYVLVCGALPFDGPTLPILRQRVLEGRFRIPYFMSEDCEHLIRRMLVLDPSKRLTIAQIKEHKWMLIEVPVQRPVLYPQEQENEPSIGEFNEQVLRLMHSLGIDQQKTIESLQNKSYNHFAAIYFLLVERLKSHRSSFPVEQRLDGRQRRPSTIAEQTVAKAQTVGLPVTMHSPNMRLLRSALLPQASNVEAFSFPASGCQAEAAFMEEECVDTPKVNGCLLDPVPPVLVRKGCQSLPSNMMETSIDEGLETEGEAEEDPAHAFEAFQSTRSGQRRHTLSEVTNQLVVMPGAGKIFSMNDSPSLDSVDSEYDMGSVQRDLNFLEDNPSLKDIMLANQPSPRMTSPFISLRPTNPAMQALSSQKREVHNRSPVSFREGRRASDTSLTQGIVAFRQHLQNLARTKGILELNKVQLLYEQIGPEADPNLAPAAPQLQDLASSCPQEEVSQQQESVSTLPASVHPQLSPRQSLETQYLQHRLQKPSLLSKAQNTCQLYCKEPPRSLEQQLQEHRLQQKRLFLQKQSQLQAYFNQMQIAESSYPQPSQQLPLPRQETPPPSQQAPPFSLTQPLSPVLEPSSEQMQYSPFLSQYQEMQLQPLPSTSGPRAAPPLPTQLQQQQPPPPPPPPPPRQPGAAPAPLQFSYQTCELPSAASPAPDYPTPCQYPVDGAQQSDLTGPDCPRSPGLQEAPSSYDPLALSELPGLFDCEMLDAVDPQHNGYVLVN
T2 sequence (Q9Y2K2 59-365 limits assumed): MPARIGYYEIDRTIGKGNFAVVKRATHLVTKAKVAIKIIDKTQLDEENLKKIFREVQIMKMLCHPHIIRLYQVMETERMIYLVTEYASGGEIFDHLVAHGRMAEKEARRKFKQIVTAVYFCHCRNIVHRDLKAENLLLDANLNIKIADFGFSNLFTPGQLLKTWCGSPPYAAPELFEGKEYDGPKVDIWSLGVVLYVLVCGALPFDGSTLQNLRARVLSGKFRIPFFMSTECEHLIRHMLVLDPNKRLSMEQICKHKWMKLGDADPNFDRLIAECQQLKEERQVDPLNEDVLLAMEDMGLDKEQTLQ

As for `COc1cc(-c2cnc3cc(C4CN(C)C4)ccn23)cc(OC(F)F)c1C(=O)NC1CC1` [Cpd 91, N-cyclopropyl-2-(difluoromethoxy)-6-methoxy-4-[7-(1-methylazetidin-3-yl)imidazo[1,2-a]pyridin-3-yl]benzamide], the results for the IC50 against SIK1, against SIK3 and against SIK2 were greater than 500 nM, 10 to 100 nM and 100 to 500 nM, respectively.
The matching figures for `COc1cc(-c2cnc3cc(C(C)(C)C#N)ccn23)cc(OC(F)F)c1C(=O)N[C@H]1CCCC[C@@H]1N` [Cpd 92, N-[(1S,2S)-2-aminocyclohexyl]-4-[7-(1-cyano-1-methyl-ethyl)imidazo[1,2-a]pyridin-3-yl]-2-(difluoromethoxy)-6-methoxy-benzamide]: greater than 500 nM, 10 to 100 nM and greater than 500 nM.
Consider `COc1cc(-c2cnc3cc(C(C)(C)C#N)ccn23)cc(OC(F)F)c1C(=O)N1CC(NC(=O)OC(C)(C)C)C1` [Cpd 94, tert-butyl N-[1-[4-[7-(1-cyano-1-methyl-ethyl)imidazo[1,2-a]pyridin-3-yl]-2-(difluoromethoxy)-6-methoxy-benzoyl]azetidin-3-yl]carbamate], for which the IC50 against SIK1, on SIK3 and on SIK2 was greater than 500 nM in each case.
Take `COc1cc(-c2cnc3cc(C(C)(C)C#N)ccn23)cc(OC(F)F)c1C(=O)N1CC(CO)C1` [Cpd 97, 2-[3-[3-(difluoromethoxy)-4-[3-(hydroxymethyl)azetidine-1-carbonyl]-5-methoxy-phenyl]imidazo[1,2-a]pyridin-7-yl]-2-methyl-propanenitrile]: the figures for the IC50 at SIK1, against SIK3 and at SIK2 were greater than 500 nM, 10 to 100 nM and greater than 500 nM, respectively.
Consider `COc1cc(-c2cnc3cc(C(C)(C)C#N)ccn23)cc(OC(F)F)c1C(=O)N1CC(OC)C1` [Cpd 98, 2-[3-[3-(difluoromethoxy)-5-methoxy-4-(3-methoxyazetidine-1-carbonyl)phenyl]imidazo[1,2-a]pyridin-7-yl]-2-methyl-propanenitrile], for which the IC50 against SIK1 is greater than 500 nM; against SIK3 it was 10 to 100 nM; at SIK2 it was greater than 500 nM.
As to `COc1cc(-c2cnc3cc(C(C)(C)C#N)ccn23)cc(OC(F)F)c1C(=O)N1CC2(CN(C)C2)C1` [Cpd 99, 2-[3-[3-(difluoromethoxy)-5-methoxy-4-(6-methyl-2,6-diazaspiro[3.3]heptane-2-carbonyl)phenyl]imidazo[1,2-a]pyridin-7-yl]-2-methyl-propanenitrile], the IC50 on SIK1 was greater than 500 nM; on SIK3 it was 100 to 500 nM; against SIK2, greater than 500 nM.
With `COc1cc(-c2cnc3cc(C(C)(C)C#N)ccn23)cc(OC(F)F)c1C(=O)NC(C1CC1)C(F)(F)F` (stereo not drawn) [Cpd 100, 4-[7-(1-cyano-1-methyl-ethyl)imidazo[1,2-a]pyridin-3-yl]-N-(1-cyclopropyl-2,2,2-trifluoro-ethyl)-2-(difluoromethoxy)-6-methoxy-benzamide], the IC50 at SIK1, at SIK3 and at SIK2 was greater than 500 nM in each case.
On to `COc1cc(-c2cnc3cc(C(C)(C)C#N)ccn23)cc(OC(F)F)c1C(=O)NC(C)C1CC1` (stereo not drawn) [Cpd 101, 4-[7-(1-cyano-1-methyl-ethyl)imidazo[1,2-a]pyridin-3-yl]-N-(1-cyclopropylethyl)-2-(difluoromethoxy)-6-methoxy-benzamide], for which the IC50 is greater than 500 nM on SIK1, 100 to 500 nM at SIK3 and greater than 500 nM against SIK2.
Turning to `COc1cc(-c2cnc3cc(C(C)(C)C#N)ccn23)cc(OC(F)F)c1C(=O)NCC1COC1` [Cpd 102, 4-[7-(1-cyano-1-methyl-ethyl)imidazo[1,2-a]pyridin-3-yl]-2-(difluoromethoxy)-6-methoxy-N-(oxetan-3-ylmethyl)benzamide], the values for the IC50 on SIK1, against SIK3 and against SIK2 were greater than 500 nM, 10 to 100 nM and greater than 500 nM, respectively.
Regarding `COc1cc(-c2cnc3cc(C(C)(C)C#N)ccn23)cc(OC(F)F)c1C(=O)N1CC(N)C1` [Cpd 103, 2-[3-[4-(3-aminoazetidine-1-carbonyl)-3-(difluoromethoxy)-5-methoxy-phenyl]imidazo[1,2-a]pyridin-7-yl]-2-methyl-propanenitrile], the IC50 at SIK1 is greater than 500 nM; against SIK3 it was 10 to 100 nM; on SIK2, greater than 500 nM.
As to `COc1cc(-c2cnc3cc(C(C)(C)C#N)ccn23)cc(OC(F)F)c1C(=O)N1CCC1C` (stereo not drawn) [Cpd 104, 2-[3-[3-(difluoromethoxy)-5-methoxy-4-(2-methylazetidine-1-carbonyl)phenyl]imidazo[1,2-a]pyridin-7-yl]-2-methyl-propanenitrile], the IC50 on SIK1, against SIK3 and on SIK2 was greater than 500 nM throughout.
As for `COc1cc(-c2cnc3cc(C(C)(C)C#N)ccn23)cc(OC(F)F)c1C(=O)N1CCC1CO` (stereo not drawn) [Cpd 105, 2-[3-[3-(difluoromethoxy)-4-[2-(hydroxymethyl)azetidine-1-carbonyl]-5-methoxy-phenyl]imidazo[1,2-a]pyridin-7-yl]-2-methyl-propanenitrile], the 50% inhibitory concentration (IC50) against SIK1 is greater than 500 nM; against SIK3, 100 to 500 nM; on SIK2, greater than 500 nM.
`COc1cc(-c2cnc3cc(C4CCOCC4)ccn23)cc(OC(F)F)c1C(=O)NC1CC1` [Cpd 108, N-cyclopropyl-2-(difluoromethoxy)-6-methoxy-4-(7-tetrahydropyran-4-ylimidazo[1,2-a]pyridin-3-yl)benzamide]: the IC50 was in the range of 100 to 500 nM on SIK1, 0.01 to 10 nM on SIK3 and 10 to 100 nM against SIK2.
Turning to `COc1cc(-c2cnc3cc(C4CCOCC4)ncn23)cc(OC(F)F)c1C(=O)NC1CC1` [Cpd 109, N-cyclopropyl-2-(difluoromethoxy)-6-methoxy-4-(7-tetrahydropyran-4-ylimidazo[1,2-c]pyrimidin-3-yl)benzamide], the IC50 at SIK1, on SIK3 and on SIK2 was greater than 500 nM in each case.
Turning to `COc1cc(-c2cnc3cc(C4(C#N)CNC4)ccn23)cc(OC(F)F)c1C(=O)NC1CC1` [Cpd 110, 4-[7-(3-cyanoazetidin-3-yl)imidazo[1,2-a]pyridin-3-yl]-N-cyclopropyl-2-(difluoromethoxy)-6-methoxy-benzamide], the IC50 against SIK1 is greater than 500 nM; on SIK3, 10 to 100 nM; on SIK2 it was greater than 500 nM.
For the molecule `COc1cc(-c2cnc3cc(C(C)(C)C#N)ccn23)cc2c1C(=O)NC2` [Cpd 111, 2-[3-(7-methoxy-1-oxo-isoindolin-5-yl)imidazo[1,2-a]pyridin-7-yl]-2-methyl-propanenitrile], the IC50 against SIK1 is greater than 500 nM; on SIK3, 10 to 100 nM; on SIK2 it was greater than 500 nM.
`COc1cc(-c2cnn3cc(C4CCOCC4)ccc23)cc(OC(F)F)c1C(=O)NC1CC1` [Cpd 112, N-cyclopropyl-2-(difluoromethoxy)-6-methoxy-4-(6-tetrahydropyran-4-ylpyrazolo[1,5-a]pyridin-3-yl)benzamide]: the IC50 on SIK1 was greater than 500 nM; on SIK3, 0.01 to 10 nM; against SIK2, 10 to 100 nM.
Turning to `COc1cc(-c2cnc3cc(C4(C(=O)O)CC4)ccn23)cc(OC(F)F)c1C(=O)NC1CC1` [Cpd 114, 1-[3-[4-(cyclopropylcarbamoyl)-3-(difluoromethoxy)-5-methoxy-phenyl]imidazo[1,2-a]pyridin-7-yl]cyclopropanecarboxylic acid], the results for the IC50 against SIK1, at SIK3 and against SIK2 were greater than 500 nM, 10 to 100 nM and greater than 500 nM, respectively.

As a reminder, the IC50 is the point on the concentration scale where inhibition reaches its midpoint.

(Values after patent US12391679B2, “Benzamide-substituted bicyclic imidazo- and pyrazolo-fused -pyridine, -pyrimide, and -pyridazine compounds for treatment of inflammatory diseases” (ONCO3R Therapeutics BV, priority 2019, dated 2025).)
